target: T1, human PAH with the R408W mutation (Homo sapiens, UniProt P00439, R408W); test: Cell Based Phenylalanine Flux Assay; details: A375 cells expressing human PAH R408W; 24 hrs compound incubation; 13C-Tyrosine by LC-MS; average where tested multiple times; read-out: AC50;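 note: after compound treatment, cells received sepiapterin plus isotope-labelled Phenylalanine for 4 hours, then labelled Tyrosine in the medium was quantified, 10-point 2-fold dilution series run in duplicate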
T1 construct: expressed in transfected cells
T1 sequence (P00439 1-452 R408W): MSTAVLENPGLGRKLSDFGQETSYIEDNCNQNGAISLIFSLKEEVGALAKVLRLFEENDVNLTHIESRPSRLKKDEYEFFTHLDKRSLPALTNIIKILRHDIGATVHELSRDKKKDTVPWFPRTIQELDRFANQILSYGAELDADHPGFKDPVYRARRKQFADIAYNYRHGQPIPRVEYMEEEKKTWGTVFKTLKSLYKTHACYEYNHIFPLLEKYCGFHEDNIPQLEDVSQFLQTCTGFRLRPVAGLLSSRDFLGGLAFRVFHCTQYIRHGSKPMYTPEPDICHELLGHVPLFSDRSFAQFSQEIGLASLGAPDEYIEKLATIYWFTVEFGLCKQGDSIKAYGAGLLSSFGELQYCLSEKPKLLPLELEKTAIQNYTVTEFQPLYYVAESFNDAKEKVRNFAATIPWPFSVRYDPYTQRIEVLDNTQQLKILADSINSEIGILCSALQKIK

Row | AC50 [nM] | Compound
1 | 500 to 1000 | Cc1cccn2nc([C@@H]3c4nc[nH]c4CCN3c3nnc(C(C)(C)C)o3)cc12 [Example 1799, (S)-2-(tert-butyl)-5-(4-(4-methylpyrazolo[1,5-a]pyridin-2-yl)-6,7-dihydro-1H-imidazo[4,5-c]pyridin-5(4H)-yl)-1,3,4-oxadiazole]
2 | < 500 | FC(F)(F)c1cnc(N2CCc3[nH]cnc3[C@H]2c2cc3cccc(Cl)n3n2)nc1 [Example 1800, (S)-4-(7-chloropyrazolo[1,5-a]pyridin-2-yl)-5-(5-(trifluoromethyl)pyrimidin-2-yl)-4,5,6,7-tetrahydro-1H-imidazo[4,5-c]pyridine]
3 | > 5000 | Cc1cccc2cc([C@H]3c4nc[nH]c4CCN3c3ncc(C(F)(F)F)cn3)nn12 [Example 1803, (R)-4-(7-methylpyrazolo[1,5-a]pyridin-2-yl)-5-(5-(trifluoromethyl)pyrimidin-2-yl)-4,5,6,7-tetrahydro-1H-imidazo[4,5-c]pyridine]
4 | 1000 to 5000 | Cc1cccn2nc([C@H]3c4nc[nH]c4CCN3c3cnccn3)cc12 [Example 1804, (R)-4-(4-methylpyrazolo[1,5-a]pyridin-2-yl)-5-(pyrazin-2-yl)-4,5,6,7-tetrahydro-1H-imidazo[4,5-c]pyridine]
5 | < 500 | Cc1cccn2nc([C@@H]3c4nc[nH]c4CCN3c3cnccn3)cc12 [Example 1805, (S)-4-(4-methylpyrazolo[1,5-a]pyridin-2-yl)-5-(pyrazin-2-yl)-4,5,6,7-tetrahydro-1H-imidazo[4,5-c]pyridine]
6 | 500 to 1000 | FC(F)(F)c1nnc(N2CCc3[nH]cnc3[C@H]2c2cc3ccccn3n2)o1 [Example 1807, (S)-2-(4-(pyrazolo[1,5-a]pyridin-2-yl)-6,7-dihydro-1H-imidazo[4,5-c]pyridin-5(4H)-yl)-5-(trifluoromethyl)-1,3,4-oxadiazole]
7 | < 500 | Cc1cccn2nc([C@@H]3c4nc[nH]c4CCN3c3nnc(C(F)(F)F)o3)cc12 [Example 1809, (S)-2-(4-(4-methylpyrazolo[1,5-a]pyridin-2-yl)-6,7-dihydro-1H-imidazo[4,5-c]pyridin-5(4H)-yl)-5-(trifluoromethyl)-1,3,4-oxadiazole]
8 | 500 to 1000 | FC(F)(F)c1cnc(N2CCc3[nH]cnc3[C@H]2c2cc3cccc(C(F)(F)F)n3n2)nc1 [Example 1810, (S)-4-(7-(trifluoromethyl)pyrazolo[1,5-a]pyridin-2-yl)-5-(5-(trifluoromethyl)pyrimidin-2-yl)-4,5,6,7-tetrahydro-1H-imidazo[4,5-c]pyridine]
9 | 500 to 1000 | FC(F)c1cccc2cc([C@@H]3c4nc[nH]c4CCN3c3ncc(C(F)(F)F)cn3)nn12 [Example 1812, (S)-4-(7-(difluoromethyl)pyrazolo[1,5-a]pyridin-2-yl)-5-(5-(trifluoromethyl)pyrimidin-2-yl)-4,5,6,7-tetrahydro-1H-imidazo[4,5-c]pyridine]
10 | < 500 | c1ccc(N2CCc3[nH]cnc3[C@H]2c2cc3ccccn3n2)nc1 [Example 1814, (S)-4-(pyrazolo[1,5-a]pyridin-2-yl)-5-(pyridin-2-yl)-4,5,6,7-tetrahydro-1H-imidazo[4,5-c]pyridine]
11 | > 5000 | c1ccc(N2CCc3[nH]cnc3[C@@H]2c2cc3ccccn3n2)nc1 [Example 1815, (R)-4-(pyrazolo[1,5-a]pyridin-2-yl)-5-(pyridin-2-yl)-4,5,6,7-tetrahydro-1H-imidazo[4,5-c]pyridine]
12 | > 5000 | FC(F)c1cccn2nc([C@H]3c4nc[nH]c4CCN3c3cnccn3)cc12 [Example 1816, (R)-4-(4-(difluoromethyl)pyrazolo[1,5-a]pyridin-2-yl)-5-(pyrazin-2-yl)-4,5,6,7-tetrahydro-1H-imidazo[4,5-c]pyridine]
13 | < 500 | FC(F)c1cccn2nc([C@@H]3c4nc[nH]c4CCN3c3cnccn3)cc12 [Example 1817, (S)-4-(4-(difluoromethyl)pyrazolo[1,5-a]pyridin-2-yl)-5-(pyrazin-2-yl)-4,5,6,7-tetrahydro-1H-imidazo[4,5-c]pyridine]
14 | > 5000 | FC(F)(F)c1cccn2nc([C@H]3c4nc[nH]c4CCN3c3cnccn3)cc12 [Example 1818, (R)-5-(pyrazin-2-yl)-4-(4-(trifluoromethyl)pyrazolo[1,5-a]pyridin-2-yl)-4,5,6,7-tetrahydro-1H-imidazo[4,5-c]pyridine]
15 | < 500 | FC(F)(F)c1cccn2nc([C@@H]3c4nc[nH]c4CCN3c3cnccn3)cc12 [Example 1819, (S)-5-(pyrazin-2-yl)-4-(4-(trifluoromethyl)pyrazolo[1,5-a]pyridin-2-yl)-4,5,6,7-tetrahydro-1H-imidazo[4,5-c]pyridine]
16 | > 5000 | FC(F)(F)c1nnc(N2CCc3[nH]cnc3[C@@H]2c2cc3c(C(F)(F)F)cccn3n2)o1 [Example 1820, (R)-2-(trifluoromethyl)-5-(4-(4-(trifluoromethyl)pyrazolo[1,5-a]pyridin-2-yl)-6,7-dihydro-1H-imidazo[4,5-c]pyridin-5(4H)-yl)-1,3,4-oxadiazole]

same assay, conditions: A375 cells expressing human R408W PAH; 24 hrs compound incubation; 13C-Tyrosine by LC-MS; average where tested multiple times; read-out: AC50

Row | AC50 [nM] | Compound
17 | 500 to 1000 | COCCc1ccc2c(C(=O)N3CCc4[nH]cnc4[C@H]3c3cc4c(C(F)(F)F)cccn4n3)cnn2c1 [Example 1784, (S)-(6-(2-methoxyethyl)pyrazolo[1,5-a]pyridin-3-yl)(4-(4-(trifluoromethyl)pyrazolo[1,5-a]pyridin-2-yl)-1,4,6,7-tetrahydro-5H-imidazo[4,5-c]pyridin-5-yl)methanone]
18 | 500 to 1000 | Cc1ccc2c(C(=O)N3CCc4[nH]cnc4[C@H]3c3cc4cccc(F)n4n3)cnn2c1 [Example 1786, (S)-(4-(7-fluoropyrazolo[1,5-a]pyridin-2-yl)-6,7-dihydro-1H-imidazo[4,5-c]pyridin-5(4H)-yl)(6-methylpyrazolo[1,5-a]pyridin-3-yl)methanone]
19 | 1000 to 5000 | Cc1ccc2c(C(=O)N3CCc4[nH]cnc4[C@@H]3c3cc4cccc(F)n4n3)cnn2c1 [Example 1787, (R)-(4-(7-fluoropyrazolo[1,5-a]pyridin-2-yl)-6,7-dihydro-1H-imidazo[4,5-c]pyridin-5(4H)-yl)(6-methylpyrazolo[1,5-a]pyridin-3-yl)methanone]
20 | 500 to 1000 | COc1cccn2nc([C@@H]3c4nc[nH]c4CCN3C(=O)c3cnn4cc(C5CC5)ccc34)cc12 [Example 1788, (S)-(6-cyclopropylpyrazolo[1,5-a]pyridin-3-yl)(4-(4-methoxypyrazolo[1,5-a]pyridin-2-yl)-6,7-dihydro-1H-imidazo[4,5-c]pyridin-5(4H)-yl)methanone]
21 | > 5000 | COc1cccn2nc([C@H]3c4nc[nH]c4CCN3C(=O)c3cnn4cc(C5CC5)ccc34)cc12 [Example 1789, (R)-(6-cyclopropylpyrazolo[1,5-a]pyridin-3-yl)(4-(4-methoxypyrazolo[1,5-a]pyridin-2-yl)-6,7-dihydro-1H-imidazo[4,5-c]pyridin-5(4H)-yl)methanone]
22 | 500 to 1000 | O=C(c1cnn2cc(C3CC3)ccc12)N1CCc2[nH]cnc2[C@H]1c1cc2cccc(F)n2n1 [Example 1790, (S)-(6-cyclopropylpyrazolo[1,5-a]pyridin-3-yl)(4-(7-fluoropyrazolo[1,5-a]pyridin-2-yl)-6,7-dihydro-1H-imidazo[4,5-c]pyridin-5(4H)-yl)methanone]
23 | > 5000 | O=C(c1cnn2cc(C3CC3)ccc12)N1CCc2[nH]cnc2[C@@H]1c1cc2cccc(F)n2n1 [Example 1791, (R)-(6-cyclopropylpyrazolo[1,5-a]pyridin-3-yl)(4-(7-fluoropyrazolo[1,5-a]pyridin-2-yl)-6,7-dihydro-1H-imidazo[4,5-c]pyridin-5(4H)-yl)methanone]
24 | < 500 | CN(C)c1ccc2c(C(=O)N3CCc4[nH]cnc4[C@H]3c3cc4c(Cl)cccn4n3)cnn2c1 [Example 1792, (S)-(4-(4-chloropyrazolo[1,5-a]pyridin-2-yl)-6,7-dihydro-1H-imidazo[4,5-c]pyridin-5(4H)-yl)(6-(dimethylamino)pyrazolo[1,5-a]pyridin-3-yl)methanone]
25 | 500 to 1000 | Cc1cccc2cc([C@@H]3c4nc[nH]c4CCN3C(=O)c3cnn4cc(N(C)C)ccc34)nn12 [Example 1794, (S)-(6-(dimethylamino)pyrazolo[1,5-a]pyridin-3-yl)(4-(7-methylpyrazolo[1,5-a]pyridin-2-yl)-6,7-dihydro-1H-imidazo[4,5-c]pyridin-5(4H)-yl)methanone]
26 | > 5000 | Cc1cccc2cc([C@H]3c4nc[nH]c4CCN3C(=O)c3cnn4cc(N(C)C)ccc34)nn12 [Example 1795, (R)-(6-(dimethylamino)pyrazolo[1,5-a]pyridin-3-yl)(4-(7-methylpyrazolo[1,5-a]pyridin-2-yl)-6,7-dihydro-1H-imidazo[4,5-c]pyridin-5(4H)-yl)methanone]
27 | 500 to 1000 | COCCc1ccc2c(C(=O)N3CCc4[nH]cnc4[C@H]3c3cc4c(F)cccn4n3)cnn2c1 [Example 1796, (S)-(4-(4-fluoropyrazolo[1,5-a]pyridin-2-yl)-6,7-dihydro-1H-imidazo[4,5-c]pyridin-5(4H)-yl)(6-(2-methoxyethyl)pyrazolo[1,5-a]pyridin-3-yl)methanone]
28 | > 5000 | Cc1cccn2nc([C@H]3c4nc[nH]c4CCN3c3nnc(C(C)(C)C)o3)cc12 [Example 1798, (R)-2-(tert-butyl)-5-(4-(4-methylpyrazolo[1,5-a]pyridin-2-yl)-6,7-dihydro-1H-imidazo[4,5-c]pyridin-5(4H)-yl)-1,3,4-oxadiazole]

— US20230365592A1 (Agios Pharmaceuticals, Inc., priority 2022, published 2023)
